# According to PubChem BioAssay (NCI):
#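 In this assay, cells in 96-well plates receive the compound at five concentrations for 48 hours. Endpoints are linearly interpolated between the surrounding concentrations. TGI: total growth inhibition.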
# Experiments:
# Assay in all cases: NCI tumour cell line growth inhibition, 48 h
# SNB-78 CNS = tested on: SNB-78 CNS
# DMS 273 small cell lung = tested on: DMS 273 small cell lung
# DMS 114 small cell lung = tested on: DMS 114 small cell lung
# XF 498 CNS = tested on: XF 498 CNS
# KM20L2 colon = tested on: KM20L2 colon
# LXFL 529 NSCLC = tested on: LXFL 529 NSCLC
# HOP-18 NSCLC = tested on: HOP-18 NSCLC
# SN12K1 renal = tested on: SN12K1 renal
# P388 leukemia = tested on: P388 leukemia
# P388/ADR leukemia = tested on: P388/ADR leukemia
Structure (SMILES),TGI (SNB-78 CNS),TGI (DMS 273 small cell lung),TGI (DMS 114 small cell lung),TGI (XF 498 CNS),TGI (KM20L2 colon),TGI (LXFL 529 NSCLC),TGI (HOP-18 NSCLC),TGI (SN12K1 renal),TGI (P388 leukemia),TGI (P388/ADR leukemia)
CCN(CC)CCOc1ccc(C(O)(Cc2ccc(OC)cc2)c2ccccc2)cc1 (configuration not stated),44.7 µM,28.3 µM,31.1 µM,27.5 µM,9.27 µM,37.2 µM,,,,
Cn1ccnc1CCc1ccc(Cl)c(Cl)c1,> 100 µM,> 100 µM,> 100 µM,,> 100 µM,> 100 µM,> 100 µM,,,
CN(C)c1ccc(/C=C/C(=O)O)cc1,> 100 µM,,> 100 µM,> 100 µM,> 100 µM,> 100 µM,> 100 µM,,,
C[n+]1c2ccccc2c(/C=N\NS(=O)(=O)c2ccc(Cl)cc2)c2ccccc21,> 100 µM,> 100 µM,> 100 µM,> 100 µM,> 100 µM,,,,,
COc1cccc(-c2nccc3c(OCc4ccccc4)c(OC)c(OC)cc23)c1,> 100 µM,> 100 µM,> 100 µM,> 100 µM,> 100 µM,> 100 µM,,,,
CCN(CC)CCOC(=O)Cc1cccc2c(=O)cc(-c3ccccc3)oc12,> 175 µM,> 625 µM,137 µM,82.6 µM,> 214 µM,,> 126 µM,127 µM,> 625 µM,> 625 µM
O=[N+]([O-])c1ccc([N+]2=NC(c3ccccc3)=NN(c3ccccc3)C2)cc1,> 100 µM,> 100 µM,94.1 µM,58.9 µM,> 100 µM,> 100 µM,> 100 µM,,,
O=C(CSc1nnc(-c2ccc(N=Cc3ccc(Cl)cc3)cc2)o1)Nc1ccc([N+](=O)[O-])cc1,84.4 µM,30.4 µM,32.9 µM,47.1 µM,73.5 µM,35.9 µM,> 100 µM,,,
